# Data taken from ChEMBL document CHEMBL1154064, “Synthesis and DNA cleavage activity of 2-hydrazinyl-1,4,5,6-tetrahydropyrimidine containing hydroxy group” (2009).
# Legend:
# Nucleic Acid [1] = assay: Binding affinity to Escherichia coli pUC19 DNA assessed as form 2 DNA level at 0.463 mM after 15 hrs by agarose gel electrophoresis; assay type: nucleic-acid assay
# Nucleic Acid [2] = assay: Binding affinity to Escherichia coli pUC19 DNA assessed as form 2 DNA level at 0.175 mM by agarose gel electrophoresis; assay type: nucleic-acid assay
# Nucleic Acid [3] = assay: Binding affinity to Escherichia coli pUC19 DNA assessed as form 2 DNA level at 0.463 mM after 7.08 hrs by agarose gel electrophoresis; assay type: nucleic-acid assay
# Nucleic Acid [4] = assay: Binding affinity to Escherichia coli pUC19 DNA assessed as form 1 DNA level at 0.175 mM after 23.12 hrs by agarose gel electrophoresis; assay type: nucleic-acid assay
# Nucleic Acid [5] = assay: Binding affinity to Escherichia coli pUC19 DNA assessed as form 2 DNA level at 0.175 mM after 23.12 hrs by agarose gel electrophoresis; assay type: nucleic-acid assay
# Nucleic Acid [6] = assay: Binding affinity to Escherichia coli pUC19 DNA assessed as form 2 DNA level at 0.463 mM after 4.42 hrs by agarose gel electrophoresis; assay type: nucleic-acid assay
# Nucleic Acid [7] = assay: Binding affinity to Escherichia coli pUC19 DNA assessed as form 1 DNA level at 0.463 mM after 15 hrs by agarose gel electrophoresis; assay type: nucleic-acid assay
# Nucleic Acid [8] = assay: Binding affinity to Escherichia coli pUC19 DNA assessed as form 1 DNA level at 0.175 mM after 9.07 hrs by agarose gel electrophoresis; assay type: nucleic-acid assay
# Nucleic Acid [9] = assay: Binding affinity to Escherichia coli pUC19 DNA assessed as form 1 DNA level at 0.698 mM by agarose gel electrophoresis; assay type: nucleic-acid assay
# Nucleic Acid [10] = assay: Binding affinity to Escherichia coli pUC19 DNA assessed as form 1 DNA level at 0.320 mM after 27.33 hrs by agarose gel electrophoresis; assay type: nucleic-acid assay
# Nucleic Acid [11] = assay: Binding affinity to Escherichia coli pUC19 DNA assessed as form 2 DNA level at 0.175 mM after 9.07 hrs by agarose gel electrophoresis; assay type: nucleic-acid assay
# HL-60 [12] = assay: Growth inhibition of human HL60 cells at 100 uM after 72 hrs by MTT assay; assay type: functional; parameters: scale not given: the % may be the effect or the level left
# Nucleic Acid [13] = assay: Binding affinity to Escherichia coli pUC19 DNA assessed as form 2 DNA level at 0.463 mM by agarose gel electrophoresis; assay type: nucleic-acid assay
# Nucleic Acid [14] = assay: Binding affinity to Escherichia coli pUC19 DNA assessed as form 1 DNA level at 0.175 mM by agarose gel electrophoresis; assay type: nucleic-acid assay
# Nucleic Acid [15] = assay: Binding affinity to Escherichia coli pUC19 DNA assessed as form 2 DNA level at 0.320 mM after 27.33 hrs by agarose gel electrophoresis; assay type: nucleic-acid assay
# Nucleic Acid [16] = assay: Binding affinity to Escherichia coli pUC19 DNA assessed as form 2 DNA level at 0.698 mM by agarose gel electrophoresis; assay type: nucleic-acid assay
# Nucleic Acid [17] = assay: Binding affinity to Escherichia coli pUC19 DNA assessed as form 1 DNA level at 0.698 mM after 23.12 hrs by agarose gel electrophoresis; assay type: nucleic-acid assay
# Nucleic Acid [18] = assay: Binding affinity to Escherichia coli pUC19 DNA assessed as form 2 DNA level at 0.175 mM after 4.95 hrs by agarose gel electrophoresis; assay type: nucleic-acid assay
# Nucleic Acid [19] = assay: Binding affinity to Escherichia coli pUC19 DNA assessed as form 1 DNA level at 0.698 mM after 4.95 hrs by agarose gel electrophoresis; assay type: nucleic-acid assay
# HeLa [20] = assay: Growth inhibition of human HeLa cells at 10 uM after 72 hrs by MTT assay; assay type: functional; parameters: scale not given: the % may be the effect or the level left
# Nucleic Acid [21] = assay: Binding affinity to Escherichia coli pUC19 DNA assessed as form 1 DNA level at 0.175 mM after 13.07 hrs by agarose gel electrophoresis; assay type: nucleic-acid assay
# Nucleic Acid [22] = assay: Binding affinity to Escherichia coli pUC19 DNA assessed as form 2 DNA level at 0.698 mM after 9.07 hrs by agarose gel electrophoresis; assay type: nucleic-acid assay
# Nucleic Acid [23] = assay: Binding affinity to Escherichia coli pUC19 DNA assessed as form 1 DNA level at 0.320 mM after 13.07 hrs by agarose gel electrophoresis; assay type: nucleic-acid assay
# Nucleic Acid [24] = assay: Binding affinity to Escherichia coli pUC19 DNA assessed as form 1 DNA level at 0.463 mM by agarose gel electrophoresis; assay type: nucleic-acid assay
# Nucleic Acid [25] = assay: Binding affinity to Escherichia coli pUC19 DNA assessed as form 1 DNA level at 0.320 mM after 4.95 hrs by agarose gel electrophoresis; assay type: nucleic-acid assay
# Nucleic Acid [26] = assay: Binding affinity to Escherichia coli pUC19 DNA assessed as form 2 DNA level at 0.320 mM after 13.07 hrs by agarose gel electrophoresis; assay type: nucleic-acid assay
# Nucleic Acid [27] = assay: Binding affinity to Escherichia coli pUC19 DNA assessed as form 2 DNA level at 0.698 mM after 13.07 hrs by agarose gel electrophoresis; assay type: nucleic-acid assay
# Nucleic Acid [28] = assay: Binding affinity to Escherichia coli pUC19 DNA assessed as form 2 DNA level at 0.698 mM after 23.12 hrs by agarose gel electrophoresis; assay type: nucleic-acid assay
# Nucleic Acid [29] = assay: Binding affinity to Escherichia coli pUC19 DNA assessed as form 1 DNA level at 0.698 mM after 13.07 hrs by agarose gel electrophoresis; assay type: nucleic-acid assay
# Nucleic Acid [30] = assay: Binding affinity to Escherichia coli pUC19 DNA assessed as form 2 DNA level at 0.463 mM after 11.30 hrs by agarose gel electrophoresis; assay type: nucleic-acid assay
# Nucleic Acid [31] = assay: Binding affinity to Escherichia coli pUC19 DNA assessed as form 1 DNA level at 0.320 mM after 9.07 hrs by agarose gel electrophoresis; assay type: nucleic-acid assay
# Nucleic Acid [32] = assay: Binding affinity to Escherichia coli pUC19 DNA assessed as form 2 DNA level at 0.320 mM by agarose gel electrophoresis; assay type: nucleic-acid assay
# Nucleic Acid [33] = assay: Binding affinity to Escherichia coli pUC19 DNA assessed as form 1 DNA level at 0.463 mM after 4.42 hrs by agarose gel electrophoresis; assay type: nucleic-acid assay
# Nucleic Acid [34] = assay: Binding affinity to Escherichia coli pUC19 DNA assessed as form 2 DNA level at 0.320 mM after 4.95 hrs by agarose gel electrophoresis; assay type: nucleic-acid assay
# Nucleic Acid [35] = assay: Binding affinity to Escherichia coli pUC19 DNA assessed as form 2 DNA level at 0.175 mM after 13.07 hrs by agarose gel electrophoresis; assay type: nucleic-acid assay
# Nucleic Acid [36] = assay: Binding affinity to Escherichia coli pUC19 DNA assessed as form 2 DNA level at 0.698 mM after 4.95 hrs by agarose gel electrophoresis; assay type: nucleic-acid assay
# Nucleic Acid [37] = assay: Binding affinity to Escherichia coli pUC19 DNA assessed as form 1 DNA level at 0.463 mM after 7.08 hrs by agarose gel electrophoresis; assay type: nucleic-acid assay
# Nucleic Acid [38] = assay: Binding affinity to Escherichia coli pUC19 DNA assessed as form 1 DNA level at 0.320 mM by agarose gel electrophoresis; assay type: nucleic-acid assay
# Nucleic Acid [39] = assay: Binding affinity to Escherichia coli pUC19 DNA assessed as form 1 DNA level at 0.463 mM after 11.30 hrs by agarose gel electrophoresis; assay type: nucleic-acid assay
# HeLa [40] = assay: Growth inhibition of human HeLa cells at 1000 uM after 72 hrs by MTT assay; assay type: functional; parameters: scale not given: the % may be the effect or the level left
# Nucleic Acid [41] = assay: Binding affinity to Escherichia coli pUC19 DNA assessed as form 2 DNA level at 0.320 mM after 9.07 hrs by agarose gel electrophoresis; assay type: nucleic-acid assay
# Nucleic Acid [42] = assay: Binding affinity to Escherichia coli pUC19 DNA assessed as form 1 DNA level at 0.698 mM after 9.07 hrs by agarose gel electrophoresis; assay type: nucleic-acid assay
# Nucleic Acid [43] = assay: Binding affinity to Escherichia coli pUC19 DNA assessed as form 1 DNA level at 0.175 mM after 4.95 hrs by agarose gel electrophoresis; assay type: nucleic-acid assay
# HL-60 [44] = assay: Growth inhibition of human HL60 cells at 1000 uM after 72 hrs by MTT assay; assay type: functional; parameters: scale not given: the % may be the effect or the level left
# HeLa [45] = assay: Growth inhibition of human HeLa cells at 100 uM after 72 hrs by MTT assay; assay type: functional; parameters: scale not given: the % may be the effect or the level left
# HL-60 [46] = assay: Growth inhibition of human HL60 cells at 10 uM after 72 hrs by MTT assay; assay type: functional; parameters: scale not given: the % may be the effect or the level left
smiles,measurement,setting,value
Cl.Cl.NNC1=NCCN1,Activity,Nucleic Acid [1],9.67%
same,Activity,Nucleic Acid [2],0.4%
same,Activity,Nucleic Acid [3],4.78%
same,Activity,Nucleic Acid [4],93.9%
same,Activity,Nucleic Acid [5],6.09%
same,Activity,Nucleic Acid [6],2.64%
same,Activity,Nucleic Acid [7],90.3%
same,Activity,Nucleic Acid [8],98.2%
same,Activity,Nucleic Acid [9],98.5%
same,Activity,Nucleic Acid [10],72.2%
same,Activity,Nucleic Acid [11],1.8%
same,Activity,HL-60 [12],4%
same,Activity,Nucleic Acid [13],2.43%
same,Activity,Nucleic Acid [14],99.6%
same,Activity,Nucleic Acid [15],27.8%
same,Activity,Nucleic Acid [16],1.52%
same,Activity,Nucleic Acid [17],85.8%
same,Activity,Nucleic Acid [18],1.43%
same,Activity,Nucleic Acid [19],97.9%
same,Activity,HeLa [20],1%
same,Activity,Nucleic Acid [21],96.9%
same,Activity,Nucleic Acid [22],4.22%
same,Activity,Nucleic Acid [23],92%
same,Activity,Nucleic Acid [24],97.6%
same,Activity,Nucleic Acid [25],95%
same,Activity,Nucleic Acid [26],7.99%
same,Activity,Nucleic Acid [27],7.62%
same,Activity,Nucleic Acid [28],14.2%
same,Activity,Nucleic Acid [29],92.4%
same,Activity,Nucleic Acid [30],7.13%
same,Activity,Nucleic Acid [31],94.1%
same,Activity,Nucleic Acid [32],3.24%
same,Activity,Nucleic Acid [33],97.4%
same,Activity,Nucleic Acid [34],5.03%
same,Activity,Nucleic Acid [35],3.07%
same,Activity,Nucleic Acid [36],2.13%
same,Activity,Nucleic Acid [37],95.2%
same,Activity,Nucleic Acid [38],96.8%
same,Activity,Nucleic Acid [39],92.9%
same,Activity,HeLa [40],2%
same,Activity,Nucleic Acid [41],5.87%
same,Activity,Nucleic Acid [42],95.8%
same,Activity,Nucleic Acid [43],98.6%
same,Activity,HL-60 [44],57%
same,Activity,HeLa [45],1%
same,Activity,HL-60 [46],1%
